Measurements as given in PubChem BioAssay (NCI).
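Five compound concentrations were applied to cells in 96-well plates for 48 hours; endpoints were derived by simple linear interpolation of the resulting dose-response curve. GI50 marks 50% less growth. TGI: total growth inhibition.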

What was measured:
Assay in all cases: growth of human tumour cells (NCI), 48 h
OVCAR-3 ovarian = tested on: OVCAR-3 ovarian
TK-10 renal = tested on: TK-10 renal
NCI/ADR-RES ovarian = tested on: NCI/ADR-RES ovarian
SN12C renal = tested on: SN12C renal
T-47D breast = tested on: T-47D breast
K-562 leukemia = tested on: K-562 leukemia
M14 melanoma = tested on: M14 melanoma

| Compound | GI50 (OVCAR-3 ovarian) [µM] | TGI (OVCAR-3 ovarian) [µM] | GI50 (TK-10 renal) [µM] | TGI (TK-10 renal) [µM] | GI50 (NCI/ADR-RES ovarian) [µM] | TGI (NCI/ADR-RES ovarian) [µM] | GI50 (SN12C renal) [µM] | TGI (SN12C renal) [µM] | GI50 (T-47D breast) [µM] | TGI (T-47D breast) [µM] | GI50 (K-562 leukemia) [µM] | TGI (K-562 leukemia) [µM] | GI50 (M14 melanoma) [µM] | TGI (M14 melanoma) [µM] |
| --- | --- | --- | --- | --- | --- | --- | --- | --- | --- | --- | --- | --- | --- | --- |
| O=C(Nc1ncc(Cc2cccc(C(F)(F)F)c2)s1)c1ccc2c(c1)OCCO2 | 0.223 | 0.629 | 0.892 | > 39.2 | 0.251 | 6.96 | 0.592 | > 100 | 0.606 | > 100 | 0.159 | > 100 | 0.224 | > 48.8 |
| Cc1nc2sccn2c1-c1nc2sccn2c1/C=C1/C(=O)Nc2ccccc21 | 1.7 | 6.24 | 13.5 | > 100 | 9.08 | > 100 | 16.8 | > 100 | 3.47 | 63.6 | > 100 | > 100 | 3.99 | > 100 |
| C=C(C)C(C1C=C(CCC(C=O)=C(C)C)C(=O)O1)C1(OC)C=C(C)C(=O)O1 (configuration not stated) | > 100 | > 100 | > 100 | > 100 | > 100 | > 100 | > 100 | > 100 | 25.8 | > 100 | 73.2 | > 100 | > 100 | > 100 |
| COc1ccc(CNc2c3ccccc3nc3ccccc23)cc1F | 4.08 | 13.3 | 3.55 | 15.7 | 2.58 | 10.3 | 2.93 | 11.9 | 4.39 | 21.5 | 2.94 | 12.3 | 1.79 | 3.59 |
| CCN(CCNS(C)(=O)=O)c1ccc(N)c(C)c1 | 3.15 | 8.58 | 3.44 | 7.73 | 11.8 | 40.9 | 11.4 | 23.9 |  |  | 3.39 | 18.4 | 10.9 | 26.4 |
| C=C(C)[C@@H]1CC[C@]2(CN)CC[C@]3(C)[C@H](CC[C@@H]4[C@@]5(C)CCCNC(C)(C)[C@@H]5CC[C@]43C)[C@@H]12 |  |  | 1.86 | 3.52 |  |  | 1.75 | 3.31 | 1.88 | 3.81 |  |  | 1.69 | 3.18 |
| Cc1cc(C(=O)CSC(=S)SC(C)(C)C)ccc1Cl |  | 35.4 |  | 60 |  | 42.1 |  | 43.6 |  |  |  | > 100 |  | 30.4 |
| COc1ccc(-c2c(C#N)c(N3CCOCC3)nc3[nH]c(=S)[nH]c(=S)c23)cc1OC | 34.6 | > 100 | 34.5 | > 100 | 56.6 | > 100 | 21.7 | 91.3 |  |  | 36.7 | > 100 | 81.6 | > 100 |
| COc1c(C)c(OCC=C(C)C)cc(CO)c1CO |  |  |  | > 100 |  | > 100 |  | > 100 |  | > 100 |  | > 100 |  | > 100 |
| COc1ccc(-c2cc(=O)oc3c4c(ccc23)OCN(Cc2ccc(F)cc2)C4)cc1 | 15.3 | 29.9 | 16.1 | 49.3 | 17.2 | 42.9 | 15.6 | 32.2 | 13.5 | 43.8 | 19.3 | 68.4 |  |  |
